Reference: US20130065888A1, “OPHTHALMIC FORMULATIONS AND PROCESSES FOR THEIR PREPARATION” (priority 2011, published 2013)

Assay: Numerical particle size distribution by microscopical image analysis of brinzolamide suspensions made by different homogenization techniques (Example 1)
Type: physicochemical
Settings: suspension in 0.05% Polysorbate 80, prior to treatment
Protocol: Preferably, particle size analyses and particle size distributions of the suspension are obtained by microscopy using a particle size analyser (preferably by following US Pharmacopeia 29 <776>—Optical Microscopy).
In Examples 1.1, 1.2 and 1.3, brinzolamide ophthalmic suspensions were prepared by using three different homogenization techniques (high pressure homogenization in accordance with the present invention, high shear homogenization and ball milling) in order to test the effectiveness these techniques on de-agglomeration of brinzolamide particles and coating of the particles with wetting agent. Three different wetting agents were used (Polysorbate 80, Poloxamer 407 and Tyloxapol). Particle size analyses were conducted by microscopy.
Portions of the suspension were treated separately by the following three methods (i)-(iii): • (i) high pressure homogenization (5000 psi/5 cycles using Microfluidizer® high pressure homogenizer) • (ii) high shear homogenization (8000 rpm/120 minutes (Ultra-Turrax high shear mixer) • (iii) ball milling (8.5 hours at 22-24 rpm (tumble blender; Zirconox beads: 0.7-1.2 mm)

particle size distribution of the individual brinzolamide particles, d90: ≤ 3.0 μm
particle size of agglomerates of brinzolamide: greater than 10 μm
SMILES: CCN[C@H]1CN(CCCOC)S(=O)(=O)c2sc(S(N)(=O)=O)cc21 [brinzolamide]
